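In this assay, cells in 96-well plates receive the compound at five concentrations for 48 hours. Endpoints are linearly interpolated between the surrounding concentrations. TGI denotes the concentration required for complete inhibition of growth.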
Tests used:
Assay in all cases: NCI tumour cell line growth inhibition, 48 h
[1] = tested on: T-47D breast
[2] = tested on: PC-3 prostate
[3] = tested on: HT29 colon
[4] = tested on: SK-MEL-2 melanoma
[5] = tested on: OVCAR-4 ovarian
[6] = tested on: BT-549 breast
[7] = tested on: UACC-257 melanoma
[8] = tested on: U251 CNS
[9] = tested on: SK-OV-3 ovarian
[10] = tested on: OVCAR-5 ovarian
[11] = tested on: NCI-H460 lung
[12] = tested on: SR leukemia

SMILES	TGI [1]	TGI [2]	TGI [3]	TGI [4]	TGI [5]	TGI [6]	TGI [7]	TGI [8]	TGI [9]	TGI [10]	TGI [11]	TGI [12]
Cc1[nH]c2ncn(/N=C/c3ccccc3)c(=N)c2c1Cc1ccccc1	> 100 µM	> 100 µM	> 100 µM	> 100 µM	> 100 µM	> 100 µM	> 100 µM	> 100 µM	> 100 µM	> 100 µM	> 100 µM	
C/C(C=O)=N\Nc1cc(C)c2ccccc2n1	39.9 µM	33 µM	30.8 µM	37.8 µM	27.8 µM	26.6 µM	36.6 µM	31.2 µM	45 µM	34.3 µM		4.17 µM
CC1CCCc2c(-c3ccc(Cl)cc3)nc(N)c(C#N)c21 (stereo not given)	35.6 µM	82 µM	> 100 µM	67.6 µM		53.4 µM	61.5 µM	> 100 µM	83.6 µM	> 100 µM	81.4 µM	40.5 µM
CC1=NC(=Cc2ccc(Cl)cc2)C(=O)N1n1c(-c2ccccc2)nc2ccccc2c1=O	74.3 µM	> 100 µM	> 100 µM			> 100 µM	75.5 µM		> 100 µM		60.7 µM	> 100 µM
CCCOc1ccc(/C=C/c2cc(OC)c(OC)c(OC)c2)cc1			3.93 µM	> 100 µM	> 72.9 µM		39.3 µM	> 29.6 µM		72.9 µM	> 32.4 µM	31.2 µM
O=S(=O)(CC1=NC2C=CC=CC2N=C1)NCc1ccccc1 (stereo not given)			> 100 µM	> 100 µM	> 100 µM			> 100 µM	> 100 µM	> 100 µM	> 100 µM	
c1ccc(C2=NN(c3ccccc3)C3(S2)SC(c2ccccc2)(c2ccccc2)c2ccccc23)cc1 (stereo not given)			> 100 µM	> 100 µM	> 100 µM		> 100 µM	> 100 µM	> 100 µM	> 100 µM	> 100 µM	
CSC1=N/C(=C\c2cccs2)C(=O)N1CN1CCCCC1		> 100 µM	> 100 µM	> 100 µM				> 100 µM	> 100 µM	> 100 µM		> 100 µM
CCn1c(=O)c2c(=O)[nH][nH]c2c2ccccc21		> 100 µM	> 100 µM		> 100 µM	> 100 µM	> 100 µM	> 100 µM		> 100 µM	> 100 µM	> 100 µM
COC(=O)c1c/c(=N\NC(=O)CC(=O)Nc2ccccc2Cl)c2ccccc2o1			> 100 µM	> 100 µM	> 100 µM		> 100 µM	> 100 µM	> 100 µM	> 100 µM	> 100 µM	> 100 µM
Oc1cn(-c2ccc(Cl)cc2)nc1-c1nnc(Nc2ccccc2)o1	50.3 µM		22 µM	38.3 µM	> 100 µM		43.5 µM	34.1 µM	49.4 µM	> 100 µM	39.6 µM	
Cc1ccc2sc3cc(=O)cc(C)c-3nc2c1			> 100 µM	> 100 µM	52.4 µM		> 100 µM	> 100 µM	> 100 µM	> 100 µM	> 100 µM	> 100 µM
NC(=S)N/N=C/c1cc(CN2CCOCC2)c(N)cn1	> 100 µM	> 100 µM	> 100 µM	> 100 µM		> 100 µM	> 100 µM	> 100 µM	> 100 µM	> 100 µM	> 100 µM	> 100 µM
CSc1nc(C)cc(Nc2ccc(O)c(CN3CCCCC3)c2)n1	> 100 µM		60.1 µM		> 100 µM	> 100 µM			> 100 µM	> 100 µM		> 100 µM
CC(C)=CCC/C(C)=C/Cc1cc(/C=C/c2cc(O)c(CC=C(C)C)c(O)c2)cc(O)c1O	4.54 µM	11.9 µM	13.6 µM	9.4 µM	7.1 µM	13.3 µM	5.2 µM	5 µM	21.5 µM	15.4 µM	9.2 µM	
O=C(Nc1ccc(C(F)(F)F)cc1[N+](=O)[O-])C(=O)C(C(=O)c1ccc2ccccc2c1)C1OC(=O)c2ccccc21 (stereo not given)			23.9 µM	29.9 µM	> 50.4 µM		24 µM	17.5 µM	> 100 µM	26.5 µM	15.6 µM	> 100 µM
CCc1cc(Cc2cc(CC)c(NC(=O)C3=CC(=O)CC(c4ccc(OC)cc4)O3)c(CC)c2Cl)c(Cl)c(CC)c1NC(=O)C1=CC(=O)CC(c2ccc(OC)cc2)O1 (stereo not given)			36.4 µM	36.7 µM	54.8 µM		36.8 µM	26.1 µM	32.2 µM	37.3 µM	32.6 µM	59.2 µM
CC(=O)OC1[C@H]2c3cc4c(cc3CN3CCC(C[C@@H]1OC(C)=O)C23)OCO4 (stereo not given in full)			> 75 µM				> 75 µM	> 75 µM	> 75 µM		> 75 µM	> 75 µM
COc1ccc(/C=C2/C(=O)N(C(=O)c3ccc(Cl)cc3)N=C2C)cc1OC			> 100 µM	> 100 µM	> 100 µM		> 100 µM	> 100 µM	> 100 µM	> 100 µM	> 100 µM	
Cc1ccc(S(=O)(=O)N/N=C2\C(=O)C3CC2C(Cl)C3Cl)cc1 (stereo not given)			> 100 µM		> 100 µM		> 100 µM	> 100 µM	> 100 µM	> 100 µM	> 100 µM	> 100 µM
CN(C(=O)C1=CCCCCC1)c1ccccc1I	> 100 µM	> 100 µM		> 100 µM	86.9 µM		> 100 µM	> 100 µM	> 100 µM	> 100 µM	> 100 µM	> 100 µM
COc1ccc2c(c1)c(Cc1c(C)n(C)c3ccc(OC)cc13)c(C)n2C			> 100 µM	> 100 µM	> 100 µM		> 100 µM	> 100 µM	> 100 µM	> 100 µM	> 100 µM	> 100 µM
CC(SC1=CC(=O)c2c(Cl)ccc(O)c2C1=O)C(=O)O (stereo not given)				33.6 µM			30.3 µM	40.2 µM			69.4 µM	37.9 µM
